Read-outs that look alike come from different tables or passages of the source.
Legend:
Assay type in all cases: cell-based
[1] = biological target: T1, PPARα (GAL4-hPPARα LBD) (Homo sapiens, UniProt Q07869); assay: PPARα transactivation activity (GAL4 chimera luciferase reporter in CV-1 cells)
T1 construct: Receptor expression plasmid (GAL4-hPPARα, LBD GAL4-hPPARγ LBD, GAL4-hPPARδ LBD); expressed in transfected cells; host or cells: CV-1 cells
T1 sequence (Q07869 239-466 limits assumed): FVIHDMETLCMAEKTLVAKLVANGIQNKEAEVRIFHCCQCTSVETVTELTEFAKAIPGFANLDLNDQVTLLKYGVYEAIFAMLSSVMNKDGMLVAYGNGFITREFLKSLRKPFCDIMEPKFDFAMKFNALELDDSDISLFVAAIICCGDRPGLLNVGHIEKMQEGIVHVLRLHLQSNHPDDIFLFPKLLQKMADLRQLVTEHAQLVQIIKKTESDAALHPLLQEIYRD

[2] = biological target: T2, PPARγ (GAL4-hPPARγ LBD) (Homo sapiens, UniProt P37231); assay: PPARγ transactivation activity (GAL4 chimera luciferase reporter in CV-1 cells)
T2 construct: Receptor expression plasmid (GAL4-hPPARα, LBD GAL4-hPPARγ LBD, GAL4-hPPARδ LBD); expressed in transfected cells; host or cells: CV-1 cells
T2 sequence (P37231 238-503 limits assumed): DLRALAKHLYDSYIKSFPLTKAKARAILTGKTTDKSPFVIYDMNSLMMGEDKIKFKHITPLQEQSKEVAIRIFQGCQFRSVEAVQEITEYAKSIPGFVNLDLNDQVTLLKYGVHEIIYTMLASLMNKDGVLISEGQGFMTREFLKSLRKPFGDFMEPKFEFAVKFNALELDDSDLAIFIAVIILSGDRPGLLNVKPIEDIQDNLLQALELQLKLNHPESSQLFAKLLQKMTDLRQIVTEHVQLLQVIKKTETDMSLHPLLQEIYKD

[3] = biological target: T3, PPARδ (GAL4-hPPARδ LBD) (Homo sapiens, UniProt Q03181); assay: PPARδ transactivation activity (GAL4 chimera luciferase reporter in CV-1 cells)
T3 construct: A chimeric receptor expression plasmid (GAL4-hPPARδ LBD), a reporter plasmid (UASx4-TK-LUC); expressed in transfected cells; host or cells: CV-1 cells
T3 sequence (Q03181 211-439 limits assumed): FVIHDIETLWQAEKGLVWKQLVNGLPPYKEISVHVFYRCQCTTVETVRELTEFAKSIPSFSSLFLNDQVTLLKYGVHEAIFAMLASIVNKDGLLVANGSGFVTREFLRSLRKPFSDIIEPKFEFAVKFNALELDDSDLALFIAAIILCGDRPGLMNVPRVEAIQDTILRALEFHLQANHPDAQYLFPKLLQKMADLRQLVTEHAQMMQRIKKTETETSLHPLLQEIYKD
Experimental: A chimeric receptor expression plasmid (GAL4-hPPARδ LBD), a reporter plasmid (UASx4-TK-LUC) and β-galactosidase (β-GAL) are transfected into CV-1 cells by utilizing a lipofection reagent DMRIE-C (Life Technologies).
(1) Measurement of PPARα, γ, δ Transactivation Activity
CV-1 cells were obtained from Tohoku University Aging Medical Laboratory, Medical Cell Collection Center. All test compounds were dissolved in dimethylsulfoxide (DMSO). Final concentration of DMSO was 0.1%.
CV-1 cells were seeded in 24 well culture plates at 2×10^5 cells per well, and cultured for 24 hours OPTI-MEM I Reduced Serum Medium (Life Technologies, 500 μL/well) containing 4%-fetal bovine serum (FBS). After washing with OPTI-MEM, transfection mixture (250 μL/well) containing 0.03 μg of GAL4-hPPARδ LBD, 0.25 μg of UASx-4-TK-LUC, 0.35 μg of βGAL, and 2 μL of lipofection reagent, DMRIE-C (Life Technologies) were added. The cells were incubated for 5 hours at 37° C.
The cells were washed and incubated for 40 hours in the presence of the test compound (final concentration was 10^−7M or 10^−6M)
The culture medium was removed and the cells were washed with PBS twice. A solubilizing buffer (100 μL/well) containing 25 mM Tris-PO4 (pH 7.8), 15% v/v glycerol, 2% CHAPS, 1% Lecithin, 1% BSA, 4 mM EGTA (pH 8.0), 8 mM MgCl2, 1 mM DTT was added. After the incubation for 10 minutes at room temperature, a portion (20 μL) of the solution was transferred into a 96-well plate. Subsequently, 100 μL of luciferase substrate solution (Piccagene: available from Nippon Gene Co., Ltd.) was added, and a luminous intensity per one second (luciferase activity) was measured using a microluminoreader (Type MLR-100, Corona Electrics Co., Ltd.). Each luciferase activity was corrected by the transfection efficiency which was calculated from β-galactosidase activity. The assay method of β-galactosidase activity was as follows: A portion (50 μL) of the solubilized sample was transferred into another 96-well plate; 100 μL of ONPG (2-nitrophenyl-β-galactopyranoside) solution was added and incubated for 5 minutes at room temperature. 50 μL of a reaction stopping solution (1M sodium carbonate solution) was added. Then the absorbance at 414 nm was measured.

[4] = compound at 10^−7 M, CV-1 cells, 40 hours, positive control 10^−4 M WY-14643 = 100%
[5] = compound at 10^−7 M, CV-1 cells, 40 hours, positive control 10^−5 M Rosiglitazone = 100%
[6] = compound at 10^−7 M, CV-1 cells, 40 hours, positive control 10^−4 M L-165041 = 100%
[7] = compound at 10^−7 M (value without parentheses)
[8] = compound at 10^−6 M (value in parentheses)

Molecule | Relative activity for PPAR transactivation, α [1, 7] | Relative activity for PPAR transactivation, γ [2, 7] | Relative activity for PPAR transactivation, δ [3, 7] | other results
4-[3-[4-Methyl-2-(4-trifluoromethyl)phenyl-5-thiazolyl]propionyl]-2-methylphenoxy]acetic acid [Example 44] |  |  |  | Relative activity for PPAR transactivation, α [1]: (0) % of control; Relative activity for PPAR transactivation, γ [2]: (0) % of control; PPARδ transactivation activity / activating effect (in words) [3]: inferior in the PPARδ transactivation activity; Relative activity for PPAR transactivation, δ [3]: (38) % of control
Cc1cc(C(=O)CCc2sc(-c3ccc(C(F)(F)F)cc3)nc2C(C)C)ccc1OCC(=O)O [Example 3, [4-[3-[2-(4-Trifluoromethyl)phenyl-4-isopropyl-5-thiazolyl]propionyl]-2-methylphenoxy]acetic acid] |  |  |  | Relative activity for PPAR transactivation, α [1, 4]: 0 % of control; Relative activity for PPAR transactivation, γ [2, 5]: 5 % of control; Relative activity for PPAR transactivation, δ [3, 6]: 101 % of control
Cc1cc(C(=O)CCc2nc(-c3ccc(Cl)cc3O)oc2C(C)C)ccc1OCC(=O)O [Example 6, [4-[3-[2-(2-Hydroxy-4-chlorophenyl)-5-isopropyl-4-oxazolyl]propionyl]-2-methylphenoxy]acetic acid] |  |  |  | Relative activity for PPAR transactivation, α [1, 4]: 0 % of control; Relative activity for PPAR transactivation, γ [2, 5]: 6 % of control; Relative activity for PPAR transactivation, δ [3, 6]: 73 % of control
CCCCCCc1nc(-c2ccc(C(F)(F)F)cc2)sc1CCC(=O)c1ccc(OCC(=O)O)c(C)c1 [Example 11, [4-[3-[4-Hexyl-2-(4-trifluoromethyl)phenyl-5-thiazolyl]propionyl]-2-methylphenoxy]acetic acid] | 0 % of control | 1 % of control | 56 % of control | 
CCCCCCc1nc(-c2ccc(C(F)(F)F)cc2)sc1CCC(=O)c1ccc(OC(C)(C)C(=O)O)c(C)c1 [Example 12, 2-[4-[3-[4-Hexyl-2-(4-trifluoromethyl)phenyl-5-thiazolyl]propionyl]-2-methylphenoxy]-2-methylpropionic acid] | 75 % of control | 31 % of control | 45 % of control | 
Cc1cc(C=CCc2sc(-c3ccc(C(F)(F)F)cc3)nc2C(C)C)ccc1OC(C)(C)C(=O)O [Example 13, 2-[4-[3-[4-Isopropyl-2-(4-trifluoromethyl)phenyl-5-thiazolyl]-1-propenyl]-2-methylphenoxy]-2-methylpropionic acid] | 63 % of control | 17 % of control | 62 % of control | 
Cc1cc(OCC(=O)O)ccc1C(=O)CCc1sc(-c2ccc(C(F)(F)F)cc2)nc1C(C)C [Example 14, [4-[3-[4-Isopropyl-2-(4-trifluoromethyl)phenyl-5-thiazolyl]propionyl]-3-methylphenoxy]acetic acid] | 0 % of control | 0 % of control | 42 % of control | 
Cc1cc(OC(C)(C)C(=O)O)ccc1C(=O)CCc1sc(-c2ccc(C(F)(F)F)cc2)nc1C(C)C [Example 16, [4-[3-[4-Isopropyl-2-(4-trifluoromethyl)phenyl-5-thiazolyl]propionyl]-3-methylphenoxy]-2-methylpropionic acid] | 62 % of control | 3 % of control | 57 % of control | 
CCCc1cc(C(=O)CCc2sc(-c3ccc(C(F)(F)F)cc3)nc2C(C)C)ccc1OCC(=O)O [Example 18, [4-[3-[4-Isopropyl-2-(4-trifluoromethyl)phenyl-5-thiazolyl]propionyl]-2-propylphenoxy]acetic acid] | 0 % of control | 1 % of control | 70 % of control | 
C=CCc1cc(C(=O)CCc2sc(-c3ccc(C(F)(F)F)cc3)nc2C(C)C)ccc1OCC(=O)O [Example 19, 2-Allyl-4-[3-[4-isopropyl-2-(4-trifluoromethyl)phenyl-5-thiazolyl]propionyl]phenoxyacetic acid] | 0 % of control | 2 % of control | 86 % of control | 
Cc1cc(C(=O)C=Cc2sc(-c3ccc(C(F)(F)F)cc3)nc2C(C)C)ccc1OCC(=O)O [Example 24, [4-[3-[4-Isopropyl-2-(4-trifluoromethyl)phenyl-5-thiazolyl]propenoyl]-2-methylphenoxy]acetic acid] | 0 % of control | 0 % of control | 75 % of control | 
Cc1cc(C(=O)C=Cc2sc(-c3ccc(C(F)(F)F)cc3)nc2C(C)C)ccc1OC(C)(C)C(=O)O [Example 25, 2-[4-[3-[4-Isopropyl-2-(4-trifluoromethyl)phenyl-5-thiazolyl]propenoyl]-2-methylphenoxy]-2-methylpropionic acid] |  |  | 61 % of control | 
CC(C)c1nc(-c2ccc(C(F)(F)F)cc2)sc1CCC(=O)c1ccc(OCC(=O)O)c(Cl)c1 [Example 33, [4-[3-[4-Isopropyl-2-(4-trifluoromethyl)phenyl-5-thiazolyl]propionyl]-2-chlorophenoxy]acetic acid] | 0 % of control | 1 % of control | 44 % of control | 
Cc1cc(C(=O)CCc2nc(-c3ccc(C(F)(F)F)cc3)sc2C(C)C)ccc1OCC(=O)O [Example 37, [4-[3-[5-Isopropyl-2-(4-trifluoromethyl)phenyl-4-thiazolyl]propionyl]-2-methylphenoxy]acetic acid] |  |  |  | Relative activity for PPAR transactivation, δ [3]: (71) % of control
Cc1ccc(C(=O)CCc2sc(-c3ccc(C(F)(F)F)cc3)nc2C(C)C)cc1OCC(=O)O [Example 41, [5-[3-[4-Isopropyl-2-(4-trifluoromethyl)phenyl-5-thiazolyl]propionyl]-2-methylphenoxy]acetic acid] |  |  |  | Relative activity for PPAR transactivation, α [1, 8]: (5) % of control; Relative activity for PPAR transactivation, γ [2, 8]: (60) % of control
Cc1ccc(C(=O)CCc2sc(-c3ccc(C(F)(F)F)cc3)nc2C(C)C)cc1OC(C)(C)C(=O)O [Example 42, 2-[5-[3-[4-Isopropyl-2-(4-trifluoromethyl)phenyl-5-thiazolyl]propionyl]-2-methylphenoxy]-2-methylpropionic acid] |  |  |  | Relative activity for PPAR transactivation, α [1, 8]: (68) % of control; Relative activity for PPAR transactivation, γ [2, 8]: (55) % of control
[4-[3-[4-Isopropyl-2-(4-methoxyphenyl)-5-thiazolyl]propionyl]-2-methylphenoxy]propionic acid [Example 26] |  |  | 18 % of control | 
